In patent US11548913B2, “Therapeutic compositions including peptides and uses thereof” (Stealth BioTherapeutics Inc., priority 2015, dated 2023):
“Also recorded” adds a separate entry of the source. Square brackets hold non-standard residues; d marks the D form. Peptide text beside a SMILES is read from it. Dmt = Cc1cc(O)cc(C)c1C[C@H](N)C(=O)O

Key:
[1] = test system: Excised Sprague-Dawley rat hearts; experiment: Modified Langendorff rat heart model, ischemia/reperfusion with peptide in the reperfusion buffer (Example 1); details: 1 μM peptide in Krebs buffer during 2 hours reperfusion after 20 min global no-flow ischemia; compared to controls
Experimental: (§1) The Langendorff rodent heart model is widely employed in studies of myocardial function and responses to injury (e.g., ischemia). For whole-heart studies, male Sprague-Dawley rats (7-9 weeks old) were injected with pentobarbital (35 mg/kg, ip injection) and hearts were excised with midline thoracotomy. The aortas were secured around a cannula of a modified Langendorff apparatus and retrogradely perfused (perfusion pressure of 75 mm Hg) with a modified Krebs-Henseleit buffer containing (in mM): 118 NaCl, 24 NaHCO3, 4.75 KCl, 1.2 KH2PO4, 1.2 MgSO4, 2.0 CaCl2, and 10 glucose (gassed with 95/5% O2/CO2). Hearts were bathed in a buffer-filled perfusion chamber maintained at 37° C. for the duration of the experiments. Following the initiation of perfusion, hearts were instrumented for the simultaneous observation of mechanical and electrical function. A buffer-filled latex balloon (size 5, Harvard Apparatus, Holliston, Mass., USA), calibrated at the beginning of each day using a digital manometer, was inserted into the left ventricle (via the mitral valve) for the measurement of left ventricular developed pressure (LVDP), with balloon volume adjusted to establish a diastolic pressure of 5-8 mm Hg. Three electrodes were placed into the buffer filled perfusion chamber for the measurement of the volume-conducted electrocardiogram (ECG). Coronary flow rates were monitored constantly with a flow probe (Transconic Systems, Ithaca, N.Y., USA) connected in series with the perfusion line, and normalized to heart wet weight (in grams) at the end of each experiment. All physiological parameters were continuously monitored and stored on a personal computer using commercially available software (Chart, AD Instruments, Colorado Springs, Colo., USA). Heart rate was calculated using the LVDP trace, and maximal rates of contraction(+dP/dt) and relaxation (−dP/dt) were calculated using the derivative of the LVDP trace.
Following a 10 minute baseline period, ischemia/reperfusion was initiated. Hearts were exposed to global no-flow ischemia by stopping perfusion for 20 min. At the end of the index ischemia, static buffer from the perfusion lines was washed out (via an accessory port proximal to the aortic cannula), and reperfusion ensued for 2 hours either with Krebs buffer alone (control) or Krebs buffer containing an experimental peptide at a concentration of 1 μM. Peptides tested included D-Arg-D-Dmt-D-Lys-L-Phe-NH2 (SBT-46), D-Arg-L-DMT-L-Ala-L-Phe-NH2 (SBT-68), (Ac)-D-Arg-L-DMT-L-Lys-L-Phe-NH2 (SBT-85), D-Arg-L-Dmt-L-His-L-Phe-NH2(SBT-100), D-Arg-L-DMT-L-Orn-L-Phe-NH2 (SBT-102), D-Orn-L-DMT-L-Lys-L-Phe-NH2(SBT-131), D-(Amidine)Arg(propylamine)-L-DMT-L-Lys-L-Phe-NH2 (SBT-140), and D-Arg(butylamidine analog)-L-DMT-L-Lys-L-Phe-NH2(SBT-149). At the end of reperfusion, the left ventricle was dissected, sliced into 5 mm-thick slices, incubated in 1% triphenyltetrazolium chloride (TTC) for 10 min (37° C.) and digitally photographed for subsequent infarct size analysis. Infarct size was expressed as a percentage of the left ventricle (% area at risk (AAR))(calculated using ImageJ software, NIH, Bethesda, Md., USA).

[2] = test system: excised rat hearts; experiment: Modified Langendorff rat heart model, peptide pre-treatment before ischemia/reperfusion (Example 2); details: hearts bathed 2 hours in 1 μM peptide before 20 min ischemia and 2 hours reperfusion; vs SBT-46, SBT-102 and controls; anticipated
Experimental: as §1, with “are” for “were”, “USA), which is” for “USA),”, “is” for “was”
Prior to the initiation of ischemia/reperfusion, the excised rat hearts are bathed in buffer containing an experimental peptide at a concentration of 1 μM or buffer alone (control) for two hours. The experimental peptide is selected from D-Arg-D-Dmt-D-Lys-L-Phe-NH2 (SBT-46), D-Arg-L-DMT-L-Ala-L-Phe-NH2 (SBT-68), (Ac)-D-Arg-L-DMT-L-Lys-L-Phe-NH2 (SBT-85), D-Arg-L-Dmt-L-His-L-Phe-NH2(SBT-100), D-Arg-L-DMT-L-Orn-L-Phe-NH2 (SBT-102), D-Orn-L-DMT-L-Lys-L-Phe-NH2(SBT-131), D-(Amidine)Arg(propylamine)-L-DMT-L-Lys-L-Phe-NH2(SBT-140), and D-Arg(butylamidine analog)-L-DMT-L-Lys-L-Phe-NH2 (SBT-149). Following a 10 minute baseline period, ischemia/reperfusion is initiated. Hearts are exposed to global no-flow ischemia by stopping perfusion for 20 min. At the end of the index ischemia, static buffer from the perfusion lines is washed out (via an accessory port proximal to the aortic cannula), and reperfusion ensues for 2 hours with Krebs buffer. At the end of reperfusion, the left ventricle is dissected, sliced into 5 mm-thick slices, incubated in 1% triphenyltetrazolium chloride (TTC) for 10 min (37° C.) and digitally photographed for subsequent infarct size analysis. Infarct size is expressed as a percentage of the left ventricle (% area at risk (AAR))(calculated using ImageJ software, NIH, Bethesda, Md., USA).

For CC(=O)N[C@H](CCCNC(=N)N)C(=O)N[C@@H](Cc1c(C)cc(O)cc1C)C(=O)N[C@@H](CCCCN)C(=O)N[C@@H](Cc1ccccc1)C(N)=O [SBT-85, (Ac)-D-Arg-L-DMT-L-Lys-L-Phe-NH2] (Ac-[dR][Dmt]KF-NH2), the “attenuation of cardiac ischemia injury and ischemia-reperfusion injury” value [1] was “able to attenuate cardiac ischemia injury and ischemia-reperfusion injury; also recorded: attenuation of cardiac ischemia-reperfusion injury”, the “infarct size expressed as a percentage of area at risk (AAR)” value [1] was “reduced infarct size” and the “left ventricular developed pressure (LVDP)” value [1] was “increased LVDP”. The “maximal rates of contraction (+dP/dt)” value [1] was “increased maximal rates of contraction”, the “maximal rates of relaxation (−dP/dt)” value [1] was “increased maximal rates of relaxation” and the LVDP [2] was “increased LVDP”. The infarct size [2] was “reduced infarct size”, the “maximal rates of contraction (+dP/dt)” value [2] was “increased maximal rates of contraction” and the “maximal rates of relaxation (−dP/dt)” value [2] was “increased maximal rates of relaxation”.
